Source: ChEMBL document CHEMBL4680222, “Sensitive fluorogenic substrates for sirtuin deacylase inhibitor discovery” (Eur J Med Chem, 2020)
Where a SMILES comes first, the peptide text is derived from it. The star is where a group is joined. AMC = Cc1cc(=O)oc2cc(N*)ccc12; Decanoyl = CCCCCCCCCC(=O)*

What was measured:
[1] = target: NAD-dependent protein deacylase sirtuin-5, mitochondrial (Homo sapiens) (UniProt Q9NXA8); assay: Substrate activity at human N-terminal His-tagged SIRT5 (34 to 302 residues) expressed in Escherichia coli at 0.5 uM measured after 2 hrs in presence of NAD+ and trypsin by fluorescence assay
NAD-dependent protein deacylase sirtuin-5, mitochondrial (Homo sapiens), sequence (Q9NXA8 37-310 limits assumed): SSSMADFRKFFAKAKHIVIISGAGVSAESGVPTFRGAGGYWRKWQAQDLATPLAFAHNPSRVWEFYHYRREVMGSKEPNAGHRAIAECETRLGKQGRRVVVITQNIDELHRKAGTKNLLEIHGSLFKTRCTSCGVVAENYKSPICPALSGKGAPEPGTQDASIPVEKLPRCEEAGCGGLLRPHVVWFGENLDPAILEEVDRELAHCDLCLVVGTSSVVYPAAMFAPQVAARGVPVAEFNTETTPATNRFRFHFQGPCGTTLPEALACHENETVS

[2] = target: T1, NAD-dependent protein deacetylase sirtuin-7 (Homo sapiens) (UniProt Q9NRC8); assay: Substrate activity at human N-terminal His-tagged SIRT7 (68 to 354 residues) expressed in Escherichia coli at 0.5 uM measured after 2 hrs in presence of NAD+ and trypsin by fluorescence assay
T1 sequence (whole entry): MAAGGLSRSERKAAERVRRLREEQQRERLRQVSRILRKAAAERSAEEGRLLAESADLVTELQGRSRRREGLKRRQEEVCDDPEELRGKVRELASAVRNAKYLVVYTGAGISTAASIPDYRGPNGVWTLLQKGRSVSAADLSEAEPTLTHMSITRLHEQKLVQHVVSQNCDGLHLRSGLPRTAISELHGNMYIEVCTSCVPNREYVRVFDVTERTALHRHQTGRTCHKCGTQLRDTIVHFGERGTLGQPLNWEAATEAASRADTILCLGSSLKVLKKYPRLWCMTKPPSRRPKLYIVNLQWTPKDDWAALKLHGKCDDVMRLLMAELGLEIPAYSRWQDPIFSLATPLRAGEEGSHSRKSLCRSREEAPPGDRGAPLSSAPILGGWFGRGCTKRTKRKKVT

[3] = target: NAD-dependent protein deacylase sirtuin-6 (Homo sapiens) (UniProt Q8N6T7); assay: Substrate activity at human N-terminal His-tagged SIRT6 (1 to 355 residues) expressed in Escherichia coli at 50 uM measured after 2 hrs in presence of NAD+ and trypsin by fluorescence assay
NAD-dependent protein deacylase sirtuin-6 (Homo sapiens), sequence (Q8N6T7 whole entry, the tested form may be a part): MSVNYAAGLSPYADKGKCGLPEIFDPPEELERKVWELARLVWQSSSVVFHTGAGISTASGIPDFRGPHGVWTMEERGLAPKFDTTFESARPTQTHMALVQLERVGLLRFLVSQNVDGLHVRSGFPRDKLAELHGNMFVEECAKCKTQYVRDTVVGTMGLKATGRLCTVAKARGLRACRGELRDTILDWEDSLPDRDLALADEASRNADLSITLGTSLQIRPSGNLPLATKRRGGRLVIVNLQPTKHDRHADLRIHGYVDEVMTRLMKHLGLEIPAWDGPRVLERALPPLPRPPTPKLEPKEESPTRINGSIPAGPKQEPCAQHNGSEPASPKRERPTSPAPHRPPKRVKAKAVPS

[4] = target: T2, NAD-dependent protein deacetylase sirtuin-2 (Homo sapiens) (UniProt Q8IXJ6); assay: Substrate activity at human N-terminal His-tagged SIRT2 (56 to 356 residues) expressed in Escherichia coli at 5 uM measured after 2 hrs in presence of NAD+ and trypsin by fluorescence assay
T2 sequence (whole entry): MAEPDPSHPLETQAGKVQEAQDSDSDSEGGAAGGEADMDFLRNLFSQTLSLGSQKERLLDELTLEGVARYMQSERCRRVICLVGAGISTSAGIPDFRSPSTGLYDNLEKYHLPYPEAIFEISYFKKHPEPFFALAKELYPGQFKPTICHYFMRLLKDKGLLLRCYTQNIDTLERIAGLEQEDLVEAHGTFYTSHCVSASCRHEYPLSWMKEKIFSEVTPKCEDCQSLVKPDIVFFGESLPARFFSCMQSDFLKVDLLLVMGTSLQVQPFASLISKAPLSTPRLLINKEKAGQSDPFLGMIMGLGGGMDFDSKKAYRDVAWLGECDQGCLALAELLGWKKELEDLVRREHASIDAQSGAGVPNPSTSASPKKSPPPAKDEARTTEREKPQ

[5] = target: T3, NAD-dependent protein deacetylase sirtuin-1 (Homo sapiens) (UniProt Q96EB6); assay: Substrate activity at human N-terminal His-tagged SIRT1 (183 to 664 residues) expressed in Escherichia coli at 5 uM measured after 2 hrs in presence of NAD+ and trypsin by fluorescence assay
T3 sequence (whole entry): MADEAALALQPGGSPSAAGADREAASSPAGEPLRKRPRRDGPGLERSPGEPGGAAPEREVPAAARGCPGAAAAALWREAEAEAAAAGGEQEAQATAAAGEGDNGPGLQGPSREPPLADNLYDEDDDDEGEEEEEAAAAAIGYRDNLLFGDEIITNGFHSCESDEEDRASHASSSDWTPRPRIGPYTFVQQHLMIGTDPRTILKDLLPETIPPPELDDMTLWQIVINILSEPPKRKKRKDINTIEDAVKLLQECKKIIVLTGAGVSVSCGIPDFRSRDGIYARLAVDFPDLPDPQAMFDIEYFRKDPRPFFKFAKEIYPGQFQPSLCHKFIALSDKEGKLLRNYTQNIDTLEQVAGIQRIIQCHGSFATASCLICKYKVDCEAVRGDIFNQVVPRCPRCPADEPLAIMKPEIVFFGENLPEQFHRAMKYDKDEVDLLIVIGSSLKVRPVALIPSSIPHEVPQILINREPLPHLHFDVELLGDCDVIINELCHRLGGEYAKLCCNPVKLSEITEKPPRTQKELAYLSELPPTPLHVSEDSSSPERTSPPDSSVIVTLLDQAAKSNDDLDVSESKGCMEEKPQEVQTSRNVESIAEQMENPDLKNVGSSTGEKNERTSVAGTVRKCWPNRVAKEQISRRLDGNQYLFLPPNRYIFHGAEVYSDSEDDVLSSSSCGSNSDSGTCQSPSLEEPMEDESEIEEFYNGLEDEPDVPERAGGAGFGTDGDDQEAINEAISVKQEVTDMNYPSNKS

[6] = target: T4, NAD-dependent protein deacetylase sirtuin-3, mitochondrial (Homo sapiens) (UniProt Q9NTG7); assay: Substrate activity at human N-terminal His-tagged SIRT3 (122 to 391 residues) expressed in Escherichia coli at 50 uM measured after 2 hrs in presence of NAD+ and trypsin by fluorescence assay
T4 sequence (whole entry): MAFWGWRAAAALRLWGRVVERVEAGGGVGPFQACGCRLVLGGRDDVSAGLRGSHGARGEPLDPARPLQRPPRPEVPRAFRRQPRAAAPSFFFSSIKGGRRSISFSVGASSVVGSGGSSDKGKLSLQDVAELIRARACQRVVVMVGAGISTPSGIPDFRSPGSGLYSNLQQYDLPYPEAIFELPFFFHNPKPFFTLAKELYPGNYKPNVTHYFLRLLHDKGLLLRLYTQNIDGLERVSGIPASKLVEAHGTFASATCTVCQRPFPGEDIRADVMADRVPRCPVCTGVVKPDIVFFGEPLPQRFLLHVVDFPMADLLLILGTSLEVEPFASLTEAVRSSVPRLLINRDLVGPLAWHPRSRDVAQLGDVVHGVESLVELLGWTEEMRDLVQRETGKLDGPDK

[7] = target: NAD-dependent protein deacylase sirtuin-5, mitochondrial (Homo sapiens) (UniProt Q9NXA8); assay: Substrate activity at human N-terminal His-tagged SIRT5 (34 to 302 residues) expressed in Escherichia coli at 5 uM measured after 2 hrs in presence of NAD+ and trypsin by fluorescence assay
[8] = target: T3, NAD-dependent protein deacetylase sirtuin-1 (Homo sapiens); assay: Substrate activity at human N-terminal His-tagged SIRT1 (183 to 664 residues) expressed in Escherichia coli at 50 uM measured after 2 hrs in presence of NAD+ and trypsin by fluorescence assay
[9] = target: T4, NAD-dependent protein deacetylase sirtuin-3, mitochondrial (Homo sapiens); assay: Substrate activity at human N-terminal His-tagged SIRT3 (122 to 391 residues) expressed in Escherichia coli at 5 uM measured after 2 hrs in presence of NAD+ and trypsin by fluorescence assay
[10] = target: NAD-dependent protein deacylase sirtuin-5, mitochondrial (Homo sapiens) (UniProt Q9NXA8); assay: Substrate activity at human N-terminal His-tagged SIRT5 (34 to 302 residues) expressed in Escherichia coli at 50 uM measured after 2 hrs in presence of NAD+ and trypsin by fluorescence assay
[11] = target: T4, NAD-dependent protein deacetylase sirtuin-3, mitochondrial (Homo sapiens); assay: Substrate activity at human N-terminal His-tagged SIRT3 (122 to 391 residues) expressed in Escherichia coli at 0.5 uM measured after 2 hrs in presence of NAD+ and trypsin by fluorescence assay
[12] = target: NAD-dependent protein deacylase sirtuin-6 (Homo sapiens) (UniProt Q8N6T7); assay: Substrate activity at human N-terminal His-tagged SIRT6 (1 to 355 residues) expressed in Escherichia coli at 0.5 uM measured after 2 hrs in presence of NAD+ and trypsin by fluorescence assay
[13] = target: T2, NAD-dependent protein deacetylase sirtuin-2 (Homo sapiens); assay: Substrate activity at human N-terminal His-tagged SIRT2 (56 to 356 residues) expressed in Escherichia coli at 0.5 uM measured after 2 hrs in presence of NAD+ and trypsin by fluorescence assay
[14] = target: NAD-dependent protein deacylase sirtuin-6 (Homo sapiens) (UniProt Q8N6T7); assay: Substrate activity at human N-terminal His-tagged SIRT6 (1 to 355 residues) expressed in Escherichia coli at 5 uM measured after 2 hrs in presence of NAD+ and trypsin by fluorescence assay
[15] = target: T1, NAD-dependent protein deacetylase sirtuin-7 (Homo sapiens); assay: Substrate activity at human N-terminal His-tagged SIRT7 (68 to 354 residues) expressed in Escherichia coli at 5 uM measured after 2 hrs in presence of NAD+ and trypsin by fluorescence assay
[16] = target: T2, NAD-dependent protein deacetylase sirtuin-2 (Homo sapiens); assay: Substrate activity at human N-terminal His-tagged SIRT2 (56 to 356 residues) expressed in Escherichia coli at 50 uM measured after 2 hrs in presence of NAD+ and trypsin by fluorescence assay
[17] = target: T3, NAD-dependent protein deacetylase sirtuin-1 (Homo sapiens); assay: Substrate activity at human N-terminal His-tagged SIRT1 (183 to 664 residues) expressed in Escherichia coli at 0.5 uM measured after 2 hrs in presence of NAD+ and trypsin by fluorescence assay
[18] = target: T1, NAD-dependent protein deacetylase sirtuin-7 (Homo sapiens); assay: Substrate activity at human N-terminal His-tagged SIRT7 (68 to 354 residues) expressed in Escherichia coli at 50 uM measured after 2 hrs in presence of NAD+ and trypsin by fluorescence assay

Activity [1] [RFU]	Activity [2] [RFU]	Activity [3] [RFU]	Activity [4] [RFU]	Activity [5] [RFU]	Activity [6] [RFU]	Activity [7] [RFU]	Activity [8] [RFU]	Activity [9] [RFU]	Activity [10] [RFU]	Activity [11] [RFU]	Activity [12] [RFU]	Activity [13] [RFU]	Activity [14] [RFU]	Activity [15] [RFU]	Activity [16] [RFU]	Activity [17] [RFU]	Activity [18] [RFU]	SMILES
0.24	0.34	1.5	1.03	0.89	1.79	0.36	2.28	0.51	1.54	0.4	0.51	0.26	0.62	0.3	2.6	0.26	1.5	CCCCCCCCCC(=O)NCCCC[C@H](NC(=O)[C@H](CCCNC(=N)N)NC(=O)[C@H](CC(C)C)NC(=O)[C@H](CC(=O)O)NC(C)=O)C(=O)Nc1ccc2c(C)cc(=O)oc2c1 (Ac-DLRK(Decanoyl)-{AMC})
0.26	0.39	0.43	0.22	0.33	0.88	0.27	0.97	0.38	0.7	0.31	0.35	0.2	0.34	0.28	0.48	0.2	0.43	CC(=O)NCCCC[C@H](NC(=O)[C@H](CCCNC(=N)N)NC(=O)[C@H](C)NC(=O)[C@@H](NC(C)=O)[C@@H](C)O)C(=O)Nc1ccc2c(C)cc(=O)oc2c1 (Ac-TARK(Ac)-{AMC})
0.28	0.6	1.09	1.72	0.74	0.85	0.24	1.1	0.73	0.78	0.51	0.46	1.68	0.74	0.44	3.19	1.68	1.09	CCCCCCCCCC(=O)NCCCC[C@H](NC(=O)[C@H](CCC(N)=O)NC(=O)[C@@H](NC(=O)[C@H](CCCCN)NC(C)=O)C(C)C)C(=O)Nc1ccc2c(C)cc(=O)oc2c1 (Ac-KVQK(Decanoyl)-{AMC})
